Active and inactive are the calls of the source. The rule behind the calls is not given here.
How the values were obtained:
Opioid receptor [1] = molecular target: T1, Opioid receptor (Rattus norvegicus, UniProt P33533+P34975+P33535); assay type: cell membranes, Brain, Membrane
Opioid receptor [2] = molecular target: T1, Opioid receptor; assay: Compound was evaluated for the inhibition of [3H]- naloxone binding to Opioid receptors in rat brain membrane in the presence of Na; assay type: cell membranes
Mus musculus [3] = assay: Compound was evaluated for narcotic analgesia activity in mice by mouse writhing assay at 30 mg/kg; Inactive; assay type: functional, organism-based; set-up: dose 30 mg/kg
Mus musculus [4] = assay: Compound was evaluated for narcotic analgesia activity in mice by the tail flick test; Weak up to 30 and 38% analgesia at 30 mg/kg; assay type: functional, organism-based; set-up: dose 30 mg/kg
Mus musculus [5] = assay: Compound was evaluated for antagonism of tail-flick analgesia induced by 6.5 mg/kg of morphine sulfate at 10 mg/kg; Inactive; assay type: functional, organism-based
Mus musculus [6] = species: Mus musculus; assay: Compound was evaluated for narcotic analgesia activity in mice by hot plate test; assay type: functional
Mus musculus [7] = species: Mus musculus; assay: Compound was evaluated for narcotic analgesia activity in mice by the tail flick test; assay type: functional
Mus musculus [8] = species: Mus musculus; assay: Compound was evaluated for narcotic analgesia activity in mice by mouse writhing assay; assay type: functional
Opioid receptor [9] = molecular target: T1, Opioid receptor; assay: Compound was evaluated for the inhibition of [3H]- naloxone Opioid receptors binding using rat brain membrane in the presence of 100 mM Na
Mus musculus [10] = assay: Compound was evaluated for antagonism of tail-flick analgesia induced by 6.5 mg/kg of morphine sulfate at 0.3 mg/kg; assay type: functional
Opioid receptor [11] = molecular target: T1, Opioid receptor; assay: Compound was evaluated for the inhibition of [3H]- naloxone Opioid receptors binding using rat brain membrane in the absence of Na
Mus musculus [12] = assay: Compound was evaluated for antagonism of tail-flick analgesia induced by 6.5 mg/kg of morphine sulfate at 1 mg/kg; assay type: functional

Row | SMILES | Ki (Opioid receptor [1]) [nM] | Ki (Opioid receptor [2]) [nM] | ED50 (Mus musculus [6]) [mg/kg] | ED50 (Mus musculus [7]) [mg/kg] | ED50 (Mus musculus [8]) [mg/kg] | further results
1 | CCC(O)C(CC(C)N(C)CC1CC1)(c1ccccc1)c1ccccc1 (centres undefined) | 600 | 5000 | – | – | – | –
2 | C=CCN(C)C(C)CC(c1ccccc1)(c1ccccc1)C(O)CC (centres undefined) | 150 | 2000 | – | – | – | –
3 | CCC(OC(C)=O)C(CC(C)N(C)CC1CC1)(c1ccccc1)c1ccccc1 (centres undefined) | 2000 | 30000 | – | – | – | ED50 (Mus musculus [3]): inactive; ED50 (Mus musculus [4]): Weak activity; ED50 (Mus musculus [5]): inactive
4 | CN1CC[C@]23c4c5ccc(O)c4O[C@H]2[C@@H](O)C=C[C@H]3[C@H]1C5.CN1CC[C@]23c4c5ccc(O)c4O[C@H]2[C@@H](O)C=C[C@H]3[C@H]1C5.O=S(=O)(O)O | – | – | 3.05 | 3.3 | 0.82 | –
5 | C=CCN(C)C(C)CC(c1ccccc1)(c1ccccc1)C(CC)OC(C)=O (centres undefined) | – | – | 10 | 3.1 | 2.5 | Ki (Opioid receptor [9]): 10000 nM; ED80 (Mus musculus [10]): 56.9 mg/kg; Ki (Opioid receptor [11]): 900 nM; ED80 (Mus musculus [12]): 61.4 mg/kg

— ChEMBL document CHEMBL1121671, “Synthesis of analogues of acetylmethadol and methadol as potential narcotic antagonists” (J Med Chem, 1981)
